Reference: US9950048B2, “Immunogenic epitopes for immunotherapy” (immatics biotechnologies GmbH, priority 2007, dated 2018)
Ends that are not written are not given here.

Tests used:
HLA-A*0201 = HLA-A*0201 (Homo sapiens, UniProt P04439, D140Y/D185E/D98H/E176V/E277Q/G131W/G231S/I119V/I121R/I166T/I218V/L300P/L318F/N151K/N90K/P208A/P217A/Q86G/Q94H/R138H/R169H/T345S); assay: HLA-A*0201 binding assay, ELISA EpI Kit (Example 4); conditions: for binding affinity to HLA-A*0201 (KD), in words: FIG. 4, lower KD = higher affinity
Experimental: FIG. 4 depicts binding affinities of selected peptides to HLA-A*0201 as measured by EpI ELISA according to Sylvester-Hvid, C, et al., 2002, Tissue Antigens, 59, 251-258). The analysis was limited to peptides known to be MHC class I binding peptides. Affinities of HLA-DR binding peptides cannot be measured with this assay.
The HLA binding assay was performed using the ELISA EpI Kit (obtained from Sceren Buus, Institute of Medical Microbiology and Immunology at the University of Copenhagen, Denmark) according to Sylvester-Hvid (Sylvester-Hvid, at al., 2002, Tissue Antigens, 59, 251-258) and the ELISA EpI Kit manual by the manufacturer.
Peptides were dissolved in DMSO+0.5% TFA (Merck, Darmstadt, Germany) at a concentration of 10 mg/ml. The highest peptide working solution used in this assay was 200 μM, therefore the stock solution was diluted 1:50 in a peptide-dilution buffer (PBS with 0.1% Lutrol-F68 and 10 mg/1 Phenol red) to a final volume of 100 μl. A serial five-fold dilution was performed with peptide-dilution buffer.
According to the manual, a 2-fold concentrated HLA-A*0201 solution was prepared by mixing 3×pH buffer (pH 6.6), Lutrol-F68, human β2m, recombinant HLA-A*0201 (all included in the ELISA EpI Kit) with PBS.
For the refolding process, 15 μl of peptide serial dilutions and 15 μl of the 2-fold concentrated MHC mix were mixed in 96-well plates (Nunc, Rochester, N.Y., USA) and incubated at 18° C. for 48 hours.
Maxisorp plates (Nunc, Rochester, N.Y.) were coated with 5 μg/ml w6/32 antibody in coating buffer (pH 9.6), incubated for 24 h at 4° C. and blocked with 5% skim milk powder (Merck, Darmstadt, Germany) in PBS over night at 4° C.
MHC complex standard (ELISA EpI Kit) was diluted with 2% skim milk powder in PBS (SMP/PBS) to a concentration of 10 nM. A serial 3.16-fold dilution was prepared and transferred to the coated and blocked Maxisorp plate. […] Plates were read at OD450 nm using the VERSAmax ELISA-Reader (Molecular Devices, Sunnyvale, Calif., USA). […]

[1] = Particle size/shape measurement and analytical HPLC of reconstituted IMA910 suspension; assay type: physicochemical; conditions: sodium hydrogen carbonate (4.2%)
Experimental: Particle size distribution and particle shape measurement of the particles obtained after reconstitution have been performed by capturing direct images of each individual particle in the range of 0.25 to 100 μm followed by image analysis.
Furthermore, analytical HPLC was performed for a closer characterization of the obtained suspension.
IMA910 is dissolved in 700 μL sodium hydrogen carbonate (4.2%).

[2] = system: sorted CD8+ NOX-001 tetramer+ T-cell line; assay: IFNγ ELISPOT functionality test of sorted specific CD8+ T-cell line; assay type: cell-based, human; conditions: FIG. 8
Experimental: FIGS. 8A and 8B depict the ELISPOT analysis of IFNγ production by T-cell lines upon in vitro restimulation with the NOX-001 peptide. FIG. 8A is T-cell line 7+ from donor HBC-154 (sorted CD8+ NOX-001 tetramer+). FIG. 8B is T-cell line 7—from donor HBC-154 (sorted CD8+ NOX-001 tetramer+).
Sorted CD8+ NOX-001 tetramer+(A.) and CD8+ NOX-001 tetramer-(B.) cells were analysed by IFNγ ELISPOT after restimulation with irrelevant (MLA-001) (upper wells) and relevant (NOX-001) (lower wells) peptide (10 μg/ml). Numbers indicate the count of positive spots.
To determine their functionality, IFNγ production was assessed by ELISPOT (IFNγ ELISPOT Set, BD, Germany) after restimulation of the cells with the corresponding peptide. Additionally, cell-mediated cytotoxicity of specific CTLs was investigated by killing of tumor cell lines using the LIVE/DEAD cell-mediated cytotoxicity Kit (L7010, Invitrogen, Germany). Both assays were performed according to manufacturer's instructions, except noted otherwise.

Sequence	fold lower KD value compared with the majority of peptides (HLA-A*0201; FIG. 4) [fold]	binding affinity to HLA-A*0201 (KD), in words (HLA-A*0201)	solubility in the solution used for reconstitution of IMA910 [1]	IFNγ production of T-cell line after restimulation with peptide [2]
ALFVRLLALA [TGFBI-001]	100	strongest binder	almost insoluble	
ILAPVILYI [NOX-001]		slightly higher binding affinity	almost insoluble	specifically expressing IFNγ after restimulation with this peptide
